From US20230173090A1, “COMPOSITIONS AND METHODS FOR MODULATING DOPAMINE RECEPTOR ACTIVITY” (The Regents of the University of California, priority 2020, published 2023)

Target: T1, SNAP-D1R (Homo sapiens, UniProt P21728)
T1 construct: expressed in transfected cells; host or cells: HEK293T
Assay: SNAP-D1R photoactivation, GIRK assay in HEK293T cells
Assay type: cell-based
Settings: P-D1ago tethered to SNAP-tag fused to the N-terminus of D1R
Source text: To test the ability of P-D1ago to photo-activate D1R, it was attached directly to a version of D1R that has SNAP fused to its extracellular N-terminus, which is adjacent to the ligand binding site of the receptor. SNAP-D1R was co-expressed in HEK293T cells with the G protein-coupled inwardly rectifying potassium (GIRK) channel as an effector. […] P-D1ago was attached to the M, which was co-expressed in HEK293T cells with the native D1R and the GIRK channel. […] To optimize D1R photoactivation, the geometric positioning of P-D1ago was adjusted using variants of M with “lift” peptides between the SNAP-tag and transmembrane segment. Photoactivation increased with an M variant containing a rigid, α-helical EAAAK (SEQ ID NO: 13) peptide (MEAAAK (SEQ ID NO: 16); FIG. 2B, C, and E) and decreased as the lift peptide was further extended (FIGS. 11D-11F), presumably because P-D1ago “rises” too far from the cell surface.
FIGS. 10A-10C. […] (A) Schematic representation of P-D1ago tethered to a SNAP-tag fused directly to the extracellular N-terminus of D1R. (B) Representative trace of SNAP-D1R photoactivation by P-D1ago according to the GIRK assay. […] (C) Summary of SNAP-D1R photoactivation by P-D1ago relative to a saturating concentration of DA (10 µM). n = 5 cells.

T1 sequence (P21728 with tags, fused parts or gaps): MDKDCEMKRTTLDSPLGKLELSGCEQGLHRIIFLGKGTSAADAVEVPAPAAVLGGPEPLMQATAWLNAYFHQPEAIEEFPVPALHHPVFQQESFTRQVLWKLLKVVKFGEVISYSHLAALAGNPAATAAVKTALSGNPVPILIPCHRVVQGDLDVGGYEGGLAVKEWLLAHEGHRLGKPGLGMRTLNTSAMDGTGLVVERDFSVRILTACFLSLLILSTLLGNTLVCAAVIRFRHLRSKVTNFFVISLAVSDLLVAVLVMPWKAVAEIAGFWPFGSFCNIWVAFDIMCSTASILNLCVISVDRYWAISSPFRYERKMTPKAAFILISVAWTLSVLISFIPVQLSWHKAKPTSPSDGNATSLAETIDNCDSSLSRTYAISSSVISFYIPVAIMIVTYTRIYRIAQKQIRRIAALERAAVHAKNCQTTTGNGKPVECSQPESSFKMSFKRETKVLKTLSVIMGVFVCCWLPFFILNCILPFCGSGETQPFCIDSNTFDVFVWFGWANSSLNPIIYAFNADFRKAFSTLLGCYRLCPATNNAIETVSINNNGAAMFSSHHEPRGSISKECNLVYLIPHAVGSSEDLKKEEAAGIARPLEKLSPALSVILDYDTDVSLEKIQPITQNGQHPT

Question: Which SNAP-D1R photoactivation does the source give for CCCN(CCc1ccc(N=Nc2ccc(NC(=O)CNC(=O)CCOCCOCCOCCOCCOCCOCCOCCOCCOCCOCCOCCOCCn3cc(CCC(=O)NCc4ccc(COc5nc(N)nc6nc[nH]c56)cc4)nn3)cc2)cc1)C1CCc2c(O)cccc2C1 (stereo not shown) [P-D1ago, Benzylguanine-azobenzene-PPHT] here?
Answer: photoactivates D1R in response to blue light and is deactivated with UV light
